From patent US20230106032A1, “IMIDAZOTRIAZINES ACTING ON CANCER VIA INHIBITION OF CDK12” (Bayer Aktiengesellschaft, priority 2020, published 2023)

Key:
[1] = system: BRCA1 mRNA expression in MDA-MB-231 cells; assay: qRT-PCR assay: inhibition of BRCA1 mRNA expression in MDA-MB-231 cells; format: cell-based; conditions: Homo sapiens, 24 h exposure, normalised to GAPDH, read-out: RTqPCR-MDA-MB-231 IC50 [mol/l] BRCA1 (median)
Experimental: Tissue cultured human MDA-MB-231 human breast cancer cells were plated in 500 microL per well at 200,000 cells/well in a 24 well microtiter plate. After 24 h, the cells were exposed continuously for 24 h to test substances (substances were added with Tecan HP D300 Dispenser). RNA was prepared using Qiagen RNeasy MiniKit (#74106), RNA was quantified using a NanoDrop Equipment, and 600 nano gamms of RNA was converted to cDNA using a SuperScript VILO kit (Thermofisher #11755050) followed by qPCR amplification. BRCA1 and ATR gene expression was measured by RT-qPCR and normalised to GAPDH housekeeping gene expression. qPCR primer sets have been purchased from Thermo Fisher Scientific/Applied Biosystems: BRCA1, #Hs 01556193; ATR, #Hs 00992123; GAPDH, #Hs 03929097.

CYCLIN K = CYCLIN K nuclear protein level: immunofluorescence/high content analysis in CAL-120 cells; format: cell-based, human; conditions: 24 h, nuclear CCNK staining, read-out: CYCLIN K degradation IF, DC50-[mol/l] (median)
Experimental: In the context of the present invention, the term “DC50 Cyclin K” refers to the DC50 values obtained according to the assay described in this section (7) herein below, i.e. the DC50 values for the degradation of Cyclin K.
CAL-120 human breast cancer cells (DSMZ ACC 459) are seeded in 1536-well microtiter plates (800 cells per well) containing 50 nanoL of compounds in Dose-Response. Control wells received DMSO or Reference Example 1. Plates are then incubated for 24 h at 37° C. in an humidified incubator and fixed with 4% PFA for 10 min. Then immunofluorescence (IF) against CYCLIN K (ThermoFisher Scientific CCNK Antibody #PA5-85020, rabbit, 1:200 dilution) is performed using standard IF protocols. Cells are then stained with Hoechst 33342 (Life Technologies, H-1399, 0.1 microg/ml) and imaged on an automated confocal microscopy system (e.g. Perkin Elmer Opera Phenix). Nuclear and cytoplasmic intensity as well as the nuclear/cytoplasmic intensity ratio is determined by automated image analysis using custom generated scripts (MetaXpress). Data is then transferred to Genedata Screener software, normalized to DMSO and control and DC50 values (degrading concentration to achieve 50% reduction of nuclear CCNK staining intensity relative to controls) are reported.

CDK2/CycE = target: T1, CDK2/CycE (Homo sapiens, UniProt P24941); assay: CDK2/CycE kinase assay (TR-FRET, 2 mM ATP); format: biochemical; conditions: read-out: CDK2/CyclinE, 2 mM ATP (high ATP) IC50-[mol/l] (median)
T1 construct: purchased ProQinase GmbH (Freiburg, Germany); host or cells: insect cells (Sf9)
From the text: CDK2/CycE-inhibitory activity of compounds of the present invention was quantified employing the CDK2/CycE TR-FRET assay as described in the following paragraphs.
Recombinant fusion proteins of GST and human CDK2 and of GST and human CycE, expressed in insect cells (Sf9) and purified by Glutathion-Sepharose affinity chromatography, were purchase from ProQinase GmbH (Freiburg, Germany). As substrate for the kinase reaction biotinylated peptide biotin-Ttds-YISPLKSPYKISEG (C-terminus in amid form) was used which can be purchased e.g. form the company JERINI peptide technologies (Berlin, Germany).
For the assay 50 nanoL of a 100 fold concentrated solution of the test compound in DMSO was pipetted into a black low volume 384 well microtiter plate or a black 1536 well microtiter plate (both Greiner Bio-One, Frickenhausen, Germany), 2 microL of a solution of CDK2/CycE in aqueous assay buffer [50 millimol/L Tris/HCl pH 8.0, 10 millimol/L MgCl2, 1.0 millimol/L dithiothreitol, 0.1 millimol/L sodium ortho-vanadate, 0.01% (v/v) Nonidet-P40 (Sigma)] were added and the mixture was incubated for 15 min at 22° C. to allow pre-binding of the test compounds to the enzyme before the start of the kinase reaction. Then the kinase reaction was started by the addition of 3 microL of a solution of adenosine-tri-phosphate (ATP, 3.33 millimol/L=> final conc. in the 5 microL assay volume is 2 millimol/L) and substrate (1.25 micromol/L=> final conc. in the 5 microL assay volume is 0.75 micromol/L) in assay buffer and the resulting mixture was incubated for a reaction time of 25 min at 22° C. The concentration of CDK2/CycE was adjusted depending of the activity of the enzyme lot and was chosen appropriate to have the assay in the linear range, typical concentrations were in the range of 10 ng/ml. The reaction was stopped by the addition of 3 microL of a solution of TR-FRET detection reagents (0.333 micromol/L streptavidine-XL665 [Cisbio Bioassays, Codolet, France] and 1.67 nanomol/L anti-RB(pSer807/pSer8l 1)-antibody from BD Pharmingen [#558389] and 2 nanomol/L LANCE EU-W1024 labeled anti-mouse IgG antibody [Perkin-Elmer, product no. AD0077, as an alternative a Terbium-cryptate-labeled anti-mouse IgG antibody from Cisbio Bioassays can be used]) in an aqueous EDTA-solution (167 millimol/L EDTA, 0.2% (w/v) bovine serum albumin in 100 millimol/L HEPES pH 7.5).
The resulting mixture was incubated 1 h at 22° C. to allow the formation of complex between the phosphorylated biotinylated peptide and the detection reagents. Subsequently the amount of phosphorylated substrate was evaluated by measurement of the resonance energy transfer from the Eu-chelate to the streptavidine-XL. Therefore, the fluorescence emissions at 620 nm and 665 nm after excitation at 350 nm was measured in a TR-FRET reader, e.g. a Pherastar (BMG Labtechnologies, Offenburg, Germany) or a Viewlux (Perkin-Elmer). The ratio of the emissions at 665 nm and at […] was taken as the measure for the amount of phosphorylated substrate. The data were normalised (enzyme reaction without inhibitor=0% inhibition, all other assay components but no enzyme=100% inhibition).

DC50 (CYCLIN K) [nM]	IC50 (CDK2/CycE) [nM]	SMILES	IC50 [1] [nM]
0.863	> 20000	CN1CCN(c2nc(NCc3nc4c(F)cccc4[nH]3)c3ncc(Br)n3n2)CC1 [Example 23, 7-bromo-N-[(4-fluoro-1H-benzimidazol-2-yl)methyl]-2-(4-methylpiperazin-1-yl)imidazo[2,1-f][1,2,4]triazin-4-amine]	3.12
0.954	12600	COc1cccc2[nH]c(CNc3nc(N4CCN(C)CC4)nn4c(Br)cnc34)nc12.O=CO [Example 16, 7-bromo-N-[(4-methoxy-1H-benzimidazol-2-yl)methyl]-2-(4-methylpiperazin-1-yl)imidazo[2,1-f][1,2,4]triazin-4-amine Formate (1/1)]	5.59
0.201	> 20000	Fc1ccc2[nH]c(CNc3nc(N4CCOCC4)nn4c(Br)cnc34)nc2c1F [Example 7, 7-bromo-N-[(4,5-difluoro-1H-benzimidazol-2-yl)methyl]-2-(morpholin-4-yl)imidazo[2,1-f][1,2,4]triazin-4-amine]	6.36
23.9	> 20000	Fc1cccc(-c2cnc3c(NCc4nc5ccccc5[nH]4)nc(N4CCOCC4)nn23)c1 [Example 3, N-[(1H-benzimidazol-2-yl)methyl]-7-(3-fluorophenyl)-2-(morpholin-4-yl)imidazo[2,1-f][1,2,4]triazin-4-amine]	> 100
3.45	> 20000	Fc1ccc2[nH]c(CNc3nc(N4CCOCC4)nn4c(C(F)(F)F)cnc34)nc2c1F [Example 27, N-[(4,5-difluoro-1H-benzimidazol-2-yl)methyl]-2-(morpholin-4-yl)-7-(trifluoromethyl)imidazo[2,1-f][1,2,4]triazin-4-amine]	1.05
1.66	> 20000	CN1CCN(c2nc(NCc3nc4ccccc4[nH]3)c3ncc(C(F)(F)F)n3n2)CC1 [Example 25, N-[(1H-benzimidazol-2-yl)methyl]-2-(4-methylpiperazin-1-yl)-7-(trifluoromethyl)imidazo[2,1-f][1,2,4]triazin-4-amine]	8.65
1.41	14200	COc1cccc2[nH]c(CNc3nc(N4CCNCC4)nn4c(Br)cnc34)nc12 [Example 15, 7-bromo-N-[(4-methoxy-1H-benzimidazol-2-yl)methyl]-2-(piperazin-1-yl)imidazo[2,1-f][1,2,4]triazin-4-amine]	2.36
0.225	> 20000	COc1cccc2[nH]c(CNc3nc(N4C[C@@H](C)N[C@@H](C)C4)nn4c(Br)cnc34)nc12 [Example 14, 7-bromo-2-[rel-(3R,5S)-3,5-dimethylpiperazin-1-yl]-N-[(4-methoxy-1H-benzimidazol-2-yl)methyl]imidazo[2,1-f][1,2,4]triazin-4-amine]	1.47
0.0659	17200	Fc1ccc2[nH]c(CNc3nc(N4CCOCC4)nn4c(Br)cnc34)nc2c1 [Example 20, 7-bromo-N-[(5-fluoro-1H-benzimidazol-2-yl)methyl]-2-(morpholin-4-yl)imidazo[2,1-f][1,2,4]triazin-4-amine]	3.54
1.28	> 20000	Brc1cnc2c(NCc3nc4ccccc4[nH]3)nc(N3CCNCC3)nn12 [Example 8, N-[(1H-benzimidazol-2-yl)methyl]-7-bromo-2-(piperazin-1-yl)imidazo[2,1-f][1,2,4]triazin-4-amine]	3.4
0.552	> 19400	FC(F)(F)c1cnc2c(NCc3nc4ccccc4[nH]3)nc(N3CCOCC3)nn12 [Example 26, N-[(1H-benzimidazol-2-yl)methyl]-2-(morpholin-4-yl)-7-(trifluoromethyl)imidazo[2,1-f][1,2,4]triazin-4-amine]	3.64
1.16	> 20000	C[C@@H]1CN(c2nc(NCc3nc4c(F)c(F)ccc4[nH]3)c3ncc(Br)n3n2)C[C@H](C)O1 [Example 5, 7-bromo-N-[(4,5-difluoro-1H-benzimidazol-2-yl)methyl]-2-[rel-(2R,6S)-2,6-dimethylmorpholin-4-yl]imidazo[2,1-f][1,2,4]triazin-4-amine]	6.39
0.0525	> 20000	C[C@@H]1CN(c2nc(NCc3nc4c(F)c(F)ccc4[nH]3)c3ncc(Br)n3n2)C[C@H](C)N1 [Example 11, 7-bromo-N-[(4,5-difluoro-1H-benzimidazol-2-yl)methyl]-2-[rel-(3R,5S)-3,5-dimethylpiperazin-1-yl]imidazo[2,1-f][1,2,4]triazin-4-amine]	0.396
